# Source: patent US12605354B2, “Azelaic acid esters in the treatment or prevention of dyslipidemia and associated conditions” (NEW FRONTIER LABS, LLC, priority 2020, dated 2026)
# Marks after values point to notes of the source that are not given here.
# Columns and labels:
# Assay type in all cases: in vivo, human
# [1] = system: subject, with diet induced insulin resistance and diabetes; experiment: Example 2: fasting blood lipids after buccal or gastric delivery of DEA; settings: for TC, triglyceride, and Calc LDL levels and TC/HDL ratio: all tested dosages vs 0 mg/kg
# From the text: (§1) Described in this example is an evaluation of the effects of alkyl azelates, such as DEA, on certain markers of insulin resistance and dyslipidemia, namely, blood plasma glucose, insulin levels and/or lipid levels, when administered either for buccal delivery or for gastric delivery in a subject, with diet induced insulin resistance and diabetes with a BMI of approximately 27.
# (§2) Diethyl azelate was synthesized from azelaic acid and ethyl alcohol sing the standard acid-catalyzed esterification followed by fractional distillation to produce DEA to 99% purity as determined by chromatography-mass spectrometry (GC-MS). The 99% distilled DEA distillation product was administered in unformulated, unencapsulated, etc. form (i.e., “as is”) for buccal delivery as indicated below.
# (§3) For gastric delivery, the 99% DEA distillation product was placed in a hard gelatin capsule, size 00 (PureCaps USA, Philmont, NY) and administered for gastric delivery by swallowing with a drink of water.
# Fasting blood levels of cholesterol, high density lipoprotein (HDL) cholesterol, and triglycerides were measured using Lipid Panel PTS test strips and CardioChek P-A test system (Polymer Technology Systems, Inc., Indianapolis, IN) according to the manufacturer's instructions.
# [2] = system: overweight to obese males; experiment: 21-day oral DEA study: fasting plasma glucose and OGTT glucose; settings: for AUC Glucose: 180-minute OGTT, in mg·min/dL (unit assumed); for AUC Glucose / Fasting plasma glucose / Glucose 180 min: D21 post-treatment, 21 daily oral doses of 1 mg/kg, mean; for Glucose 180 min: OGTT
# From the text: Seventeen subjects were recruited by sampling a large population at risk for T2D (according to convenience sample; a statistical method of drawing representative data) to measure the changes in glucose, lipid and insulin measurements after an OGTT after the subjects had been treated for 21 days.
# The subjects were overweight to obese males with body mass indices (BMIs) ranging from 27.2 to 43.6 kg/m^2, glycated hemoglobin A1c (HbA1c) of 5.0-6.2% and insulin levels of 8.8-52 μU/mL. The study was conducted by Clinical Trials of Texas, Inc. in San Antonio, TX. The cohort represented a population at risk for the development of T2D. The study was restricted to male participants to control for the variability of insulin sensitivity associated with the menstrual cycle. The subjects received 21 daily oral doses (“q1d”) of 1 mg/kg DEA. An OGTT, in which 75 grams of glucose in a total volume of 300 mL was administered orally to subjects, was performed on Day 0 and again on Day 21 and glucose measurements performed at −30, −5 and 0 min, insulin measurements at −30 and 0 min, and both glucose measurements and insulin measurements at 30, 60, 90, 120 and 180 minutes, where “0 min” is the time at which the glucose solution was administered. The 180-minute time point was selected to gain an early insight into the possible signal of drug action. Blood lipid levels (triglycerides, cholesterol, HDL, non-cholesterol HDL and LDL) were measured before the onset of treatment on Day 0 and again on Day 21. The error of the assays was <5% [36].
# The results of the various marker measurements at Day 0 and Day 21 were compared using both the paired Students T-test and the Wilcoxon signed rank test. The results of both calculations are provided; the p-value from the paired Student T-test first, followed by the p-value from the Wilcoxon signed rank test. Generalized Estimating Equations and bootstrapping were used to verify the results generated with other methods. Fasting glucose was calculated as the average of the −30, −5, and 0-minute measurements and fasting insulin was calculated as the average of the −30- and 0-minute measurements. Spearman's correlation coefficient was calculated for the relationship between A1c and pre-treatment fasting plasma glucose versus post-treatment fasting plasma glucose. Area under the curve (AUC) was calculated over the 180-minute time span of the OGTT. All analyses were performed using the open language engine R 3.4.4. Statistical significance was at the α=0.05 level.
# For measuring the effect of DEA on blood glucose, an assessment of fasting plasma glucose levels was relied upon, which is a measure that is commonly used as an indication that a subject may be diabetic. A level under 100 mg/dL is considered clinically normal while the range between 100 and 125 mg/dL is indicative of prediabetes. At the threshold of 100 mg/dL the human body begins to have a compromised insulin response to glucose shock. The OGTT was used, in which a standard dose of glucose was ingested by mouth, and blood samples were taken at specified time points after ingestion. Plasma blood glucose measurements were then obtained as a means of understanding the pharmacodynamic effects of DEA.
# [3] = system: subject, with diet induced insulin resistance and diabetes; experiment: Example 2: plasma glucose in OGTT after buccal or gastric delivery of DEA; settings: for plasma glucose levels during OGTT: 0, 1, 2, 4 hours, FIG. 16
# From the text: as §1, §2, §3
# Fasting blood glucose levels were measured using UniStrip blood glucose test strips (UniStrip Technologies LLC, Charlotte, NC) and OneTouchUltra 2 blood glucose meter (LifeScan OneTouch, Tampa. FL).
# [4] = buccal delivery, 0.5, 1, 2, 4 mg/kg vs 0 mg/kg, FIG. 8, greatest lowering at 0.5 mg/kg
smiles,measurement,setting,value
"CCOC(=O)CCCCCCCC(=O)OCC [DEA, diethyl azelate]","improvement in total cholesterol and TC/HDL ratio, buccal relative to gastric delivery","[1]; FIG. 17, T test",statistically significant greater improvement
same,HDL levels,"[1]; buccal delivery, 0.5, 1, 2, 4 mg/kg vs 0 mg/kg, FIG. 8",increased at all DEA doses tested
same,Triglycerides,[1]; [4],lowered
same,calculated LDL,[1]; [4],lowered
same,total cholesterol,[1]; [4],lowered
same,HDL levels,"[1]; buccal delivery, all dosages vs 0 mg/kg, FIG. 15","elevated (i.e., improved)"
same,TC/HDL ratio,"[1]; buccal delivery, all tested amounts 0.5-4 mg/kg vs no DEA, FIG. 9, lowered the most with 0.5 mg/kg","lowered (i.e., improved) TC/HDL ratio"
same,"TC, triglyceride, and Calc LDL levels and TC/HDL ratio","[1]; buccal delivery, FIG. 15, more pronounced at 1 mg/kg","lowered (i.e., improved)"
same,HDL levels,"[1]; gastric delivery, all dosages vs 0 mg/kg, FIG. 15","elevated (i.e., improved)"
same,"TC, triglyceride, and Calc LDL levels and TC/HDL ratio","[1]; gastric delivery, FIG. 15, more pronounced at 0.25 mg/kg","lowered (i.e., improved)"
same,average decrease of fasting glucose,"[2]; 8 subjects with a fasting glucose≥100 mg/dL, Day 21 vs Day 0, p=0.033, p=0.06",6.06 mg/dL
same,AUC Glucose,"[2]; All (n = 17), D0 25826",25356
same,AUC Glucose,"[2]; FPG <100 mg/dL (n = 8), D0 23530",24475
same,AUC Glucose,"[2]; FPG >100 mg/dL (n = 9), D0 27867",26138
same,AUC Glucose,"[2]; High A1c (n = 9), D0 27313",25889
same,AUC Glucose,"[2]; Low A1c (n = 8), D0 24153",24756
same,Fasting plasma glucose,"[2]; All (n = 17), D0 101.662",99.732 mg/dL
same,Fasting plasma glucose,"[2]; FPG <100 mg/dL (n = 8), D0 92.769",97.25 mg/dL
same,Fasting plasma glucose,"[2]; FPG >100 mg/dL (n = 9), D0 109.567, P < 0.01",101.939** mg/dL
same,Fasting plasma glucose,"[2]; High A1c (n = 9), D0 105.156",100.261 mg/dL
same,Fasting plasma glucose,"[2]; Low A1c (n = 8), D0 97.731",99.138 mg/dL
same,Glucose 180 min,"[2]; All (n = 17), D0 100.315",91.579 mg/dL
same,Glucose 180 min,"[2]; FPG <100 mg/dL (n = 8), D0 89.919",86.494 mg/dL
same,Glucose 180 min,"[2]; FPG >100 mg/dL (n = 9), D0 109.556",96.1 mg/dL
same,Glucose 180 min,"[2]; High A1c (n = 9), D0 108.978",95.128 mg/dL
same,Glucose 180 min,"[2]; Low A1c (n = 8), D0 90.569",87.588 mg/dL
same,increase of post-treatment fasting glucose,"[2]; entire cohort of 17 subjects, Day 21 vs Day 0, insignificant (p=0.962; p=0.96)",0.11 mg/dL
same,average decrease of glucose at 180 minutes,"[2]; entire cohort, not significant (p=0.136; 0.057)",9.14%
same,decrease in 180 min plasma glucose after treatment,"[2]; remaining 16 subjects (subject #1 excluded), p=0.002, 0.003",13.5%
same,increase of glucose at 180 minutes,[2]; single outlier (subject #1),58.6%
same,fasting glucose level post-treatment,"[2]; subject #1 (A1c 6.2%), decreased from 123.8",116.3 mg/dL
same,180 min glucose level post-treatment,"[2]; subject #1 (A1c 6.2%), decreased from 200.0",184.5 mg/dL
same,180 min glucose level post-treatment,"[2]; subject #2 (A1c 6.1%), from 88.3",69 mg/dL
same,180 min glucose level post-treatment,"[2]; subject #3 (A1c 6.0%), from 146",119 mg/dL
same,average decrease of fasting glucose,"[2]; subjects with HbA1c≥5.6%, Day 21 vs Day 0, p=0.128, p=0.22",4.25 mg/dL
same,median decrease of glucose levels at 180 minutes,"[2]; subset of 12 subjects, Day 21",25.3%
same,average decrease of glucose levels at 180 minutes,"[2]; subset of 12 subjects, Day 21, p<0.001",21.7%
same,"improvement in plasma glucose levels, buccal relative to gastric delivery","[3]; at 0 hour and 4 hours after 75 grams of glucose in OGTT, FIG. 17, T test",significantly significant greater improvement
same,plasma glucose levels during OGTT,"[3]; buccal delivery vs 0 mg/kg, more pronounced at 0.5 mg/kg","lowered (i.e., improved) plasma glucose levels at most tested DEA dosages and post-glucose ingestion time points"
same,plasma glucose concentrations during OGTT,"[3]; buccal, 0.5-4 mg/kg vs 0, 0, 1, 2, 4 hours after 75 grams of glucose, FIG. 10, most pronounced at 0.5 and 1 mg/kg",lowered (improved) plasma glucose levels
same,plasma glucose concentrations during fasting OGTT,"[3]; buccal, 0.5-4 mg/kg vs 0, FIG. 11, most pronounced at 0.5 and 1 mg/kg",lowered (improved) plasma glucose levels
same,plasma glucose concentrations during OGTT at 1 hour,"[3]; buccal, 0.5-4 mg/kg vs 0, FIG. 12, most pronounced at 0.5 mg/kg",lowered (improved) plasma glucose levels in the setting of OGTT at all DEA dosage amounts
same,plasma glucose concentrations during OGTT at 2 hours,"[3]; buccal, 0.5-4 mg/kg vs 0, FIG. 13, most pronounced at 0.5 and 1 mg/kg",lowered (improved) plasma glucose levels in the setting of OGTT at all DEA dosage amounts
same,plasma glucose concentrations during OGTT at 4 hours,"[3]; buccal, 0.5-4 mg/kg vs 0, FIG. 14","lowered (improved) plasma glucose levels in the setting of OGTT at the 0.5 mg/kg, 1 mg/kg, and 4 mg/kg DEA dosage amounts"
same,plasma glucose levels during OGTT,"[3]; gastric delivery vs 0 mg/kg, more pronounced at 0.25 mg/kg","lowered (i.e., improved) plasma glucose levels at most tested DEA dosages and post-glucose ingestion time points"
